Test results as given in patent US20230220416A1, “NOVEL TR[…] AND USES THEREOF” (priority 2020, published 2023).

Assays:
[1] = test system: human CD34-positive HSC; test: Lentiviral SIN vector transduction of CD34-positive HSC at MOI 1, 3 or 5 in X-Vivo 20, VCN by qPCR (Example 1); conditions: each with 4 μg/mL protamine sulfate, VCN with protamine sulfate only set as 1, 1 μg/mL Amphotericin B, 1 mg/ml Lentiboost
[2] = test system: target cell; type: cell-based; conditions: for transduction efficiency of a target cell, single enhancer (result in words): Amphotericin B 0.5-1 μg/mL, Silibinin 1 to 5 μM, Midostaurin 100 to 400 nM, Nystatin 100 μM, Natamycin 3 μM, Everolimus 1 μM, deoxyribonucleosides 0.3-2.5 mM, PEG-PLA-PEG 10 μg/mL, PEG-PCL-PEG 10 μg/mL, Resveratrol 5 μM, Prostaglandin E2 10 μM, Poloxamer synperonic F108 0.5-2 mg/mL, DMSO 1% (v/v), protamine salts 4 μg/mL; for suitability of approved therapeutic compounds as transduction enhancers (result in words): no concentration stated
Description: The efficiency of a transduction experiment may be determined as known in the art. Preferably, transduction efficiency may be measured by determining the vector copy number (VCN) in a single cell after a transduction experiment or by measuring the average VCN in a population of cells after a transduction experiment. “Vector copy number” or “VCN” refers to the number of copies of a vector, or portion thereof, in a cell's genome. The average VCN may be determined from a population of cells or from individual cell colonies. Exemplary methods for determining VCN include any form of polymerase chain reaction (PCR), such as qPCR or digital droplet PCR, and flow cytometry. […] 479-487 or as described in Examples 1 or 5.
Several transduction enhancers and combinations of transduction enhancers reported herein result in an increase in transduction efficiency. An “increase in transduction efficiency” refers to an increase in VCN upon transduction of a cell population by a gene therapy vector in presence of a transduction enhancer compared to the absence of a transduction enhancer.

[3] = test system: Human CD34+HSC; test: Lentiviral SIN vector transduction of CD34+ HSC at MOI 20 with or without 1% DMSO, VCN; type: cell-based; conditions: 2 h pre-stimulation and 16 h incubation, X-Vivo 20, VCN without DMSO 0.915
Method: Cells were transduced in the absence and presence of 1% DMSO.
The transduction process comprised a 2 h pre-stimulation period in presence of 1% DMSO, followed by 16 h incubation of pre-stimulated cells with the gene therapy vector with an MOI 20 in presence of 1% DMSO.

[4] = MOI of 1, 5 μM Silibinin, 5 μM Resveratrol, 1 μM Everolimus, 0,4 μM Midostaurin, 100 μM Nystatin, 3 μM Natamycin

In the case of “2,3-Dihydro-3-(4-hydroxy-3-methoxyphenyl)-2-(hydroxymethyl)-6-(3,5,7-trihydroxy-4-oxobenzopyran-2-yl)benzodioxin [Silibinin]”, the “increase in the efficiency of lentiviral transduction (VCN), fold induction rel. to PS” value (“increase … fold induction rel. to PS” below) [1, 4] is reported as “(factor 4.8) fold”, the “transduction efficiency of a target cell, single enhancer (result in words)” value (“transduction efficiency of a target cell” below) [2] is reported as “enhances the transduction efficiency” and the “suitability of approved therapeutic compounds as transduction enhancers (result in words)” value (from here on “suitability”) [2] is reported as “efficient transduction enhancers”.
With `C[C@@H]1[C@H](O)[C@@H](C)/C=C/C=C/C=C/C=C/C=C/C=C/C=C/[C@H](O[C@@H]2O[C@H](C)[C@@H](O)[C@H](N)[C@@H]2O)C[C@@H]2O[C@](O)(C[C@@H](O)C[C@@H](O)[C@H](O)CC[C@@H](O)C[C@@H](O)CC(=O)O[C@H]1C)C[C@H](O)[C@H]2C(=O)O` [Amphotericin B] the “increase … fold induction rel. to PS” value [1, 4] was “(factor 3) fold”, the “increase … fold induction rel. to PS” value ([1]; MOI of 3, 1 μM Everolimus) was “(factor 2.2) fold” and the “transduction efficiency of a target cell” value [2] was “enhances the transduction efficiency”. For the same molecule, the “suitability” value [2] was “efficient transduction enhancers”.
`C[S+](C)[O-]` [DMSO, Dimethyl sulfoxide] was tested, and the “transduction efficiency of a target cell” value [2] was “enhances the transduction efficiency” and the “vector copy number (VCN)” value [3] was 1.16.
`CO[C@H]1C[C@@H]2CC[C@@H](C)[C@@](O)(O2)C(=O)C(=O)N2CCCC[C@H]2C(=O)O[C@H]([C@H](C)C[C@@H]2CC[C@@H](OCCO)[C@H](OC)C2)CC(=O)[C@H](C)/C=C(\C)[C@@H](O)[C@@H](OC)C(=O)[C@H](C)C[C@H](C)/C=C/C=C/C=C/1C` [Everolimus] was tested, and the “increase … fold induction rel. to PS” value [1, 4] was “(factor 13.5) fold”, the “increase … fold induction rel. to PS” value ([1]; MOI of 3, 1 μM Everolimus) was “(factor 2.5) fold” and the “transduction efficiency of a target cell” value [2] was “enhances the transduction efficiency”.
For `Nc1nc(F)nc2c1ncn2[C@@H]1O[C@H](CO)[C@@H](O)[C@@H]1O` [Fludarabine], the “suitability” value [2] was “efficient transduction enhancers”.
For `CO[C@@H]1[C@H](N(C)C(=O)c2ccccc2)C[C@H]2O[C@]1(C)n1c3ccccc3c3c4c(c5c6ccccc6n2c5c31)C(=O)NC4` [Midostaurin], the “increase … fold induction rel. to PS” value [1, 4] was “(factor 4.2) fold”.
With `C[C@@H]1C/C=C/C=C/C=C/C=C/[C@H](O[C@@H]2O[C@H](C)[C@@H](O)[C@H](N)[C@@H]2O)C[C@@H]2O[C@](O)(C[C@@H](O)C[C@H]3O[C@@H]3/C=C/C(=O)O1)C[C@H](O)[C@H]2C(=O)O` [Natamycin] the “suitability” value [2] was “efficient transduction enhancers”.
In the case of `C[C@@H]1[C@H](O)[C@@H](C)/C=C/C=C/CC/C=C/C=C/C=C/C=C/C(O[C@H]2O[C@H](C)[C@@H](O)[C@H](N)[C@@H]2O)CC2O[C@](O)(CC(O)C(O)CCC(O)CC(O)CC(O)CC(=O)O[C@H]1C)CC(O)C2C(=O)O` (stereo partly shown) [Nystatin], the “increase … fold induction rel. to PS” value [1, 4] is reported as “(factor 2.6) fold”, the “transduction efficiency of a target cell” value [2] is reported as “enhances the transduction efficiency” and the “suitability” value [2] is reported as “efficient transduction enhancers”.
In the case of `CCCCC[C@H](O)/C=C/[C@H]1[C@H](O)CC(=O)[C@@H]1C/C=C\CCCC(=O)O` [Prostaglandin E2], the “transduction efficiency of a target cell” value [2] is reported as “enhances the transduction efficiency”.
